# ChEMBL document CHEMBL5512619, “Anticancer mechanism of coumarin-based derivatives” (Eur J Med Chem, 2024)
# What was measured:
# A549 = assay: Antiproliferative activity against human A549 cells incubated 24 hrs by MTT assay; assay type: functional, cell-based; conditions: A549, 24 h
# MDA-MB-231 = assay: Antiproliferative activity against human MDA-MB-231 cells incubated 24 hrs by MTT assay; assay type: functional, cell-based; conditions: MDA-MB-231, 24 h
# HeLa [1] = assay: Antiproliferative activity against human HeLa cells assessed as inhibition of cell growth after 72 hrs by MTT assay; assay type: functional, cell-based
# [2] = Antiproliferative activity against human Lu1 cells assessed as inhibition of cell growth after 72 hrs by MTT assay; assay type: functional, cell-based; conditions: Lu1, 72 h
# MCF7 = assay: Antiproliferative activity against human MCF7 cells assessed as inhibition of cell growth after 72 hrs by MTT assay; assay type: functional, cell-based; conditions: MCF7, 72 h
# SK-MEL-2 = assay: Antiproliferative activity against human SK-MEL-2 cells assessed as inhibition of cell growth after 72 hrs by MTT assay; assay type: functional, cell-based; conditions: SK-MEL-2, 72 h
# HepG2 [3] = assay: Antiproliferative activity against human HepG2 cells assessed as inhibition of cell growth after 72 hrs by MTT assay; assay type: functional, cell-based; conditions: HepG2, 72 h
# [4] = Cytotoxicity against human Lu1 cells; assay type: functional, cell-based
# HepG2 [5] = assay: Cytotoxicity against human HepG2 cells; assay type: functional, cell-based
# HeLa [6] = assay: Cytotoxicity against human HeLa cells; assay type: functional, cell-based
# Carbonic anhydrase 1 = Carbonic anhydrase 1 (Homo sapiens, UniProt P00915); assay: Binding affinity to human CA1 assessed as inhibition constant incubated for 10 mins by phenol red dye based stopped flow CO2 hydration assay
# Carbonic anhydrase 2 = Carbonic anhydrase 2 (Homo sapiens, UniProt P00918); assay: Binding affinity to human CA2 assessed as inhibition constant incubated for 10 mins by phenol red dye based stopped flow CO2 hydration assay
# [7] = target: Epidermal growth factor receptor (Homo sapiens, UniProt P00533); assay: Inhibition of EGFR (unknown origin)
# [8] = target: Receptor tyrosine-protein kinase erbB-2 (Homo sapiens, UniProt P04626); assay: Inhibition of HER2 (unknown origin)
# Receptor tyrosine-protein kinase erbB-2, sequence (P04626 whole entry): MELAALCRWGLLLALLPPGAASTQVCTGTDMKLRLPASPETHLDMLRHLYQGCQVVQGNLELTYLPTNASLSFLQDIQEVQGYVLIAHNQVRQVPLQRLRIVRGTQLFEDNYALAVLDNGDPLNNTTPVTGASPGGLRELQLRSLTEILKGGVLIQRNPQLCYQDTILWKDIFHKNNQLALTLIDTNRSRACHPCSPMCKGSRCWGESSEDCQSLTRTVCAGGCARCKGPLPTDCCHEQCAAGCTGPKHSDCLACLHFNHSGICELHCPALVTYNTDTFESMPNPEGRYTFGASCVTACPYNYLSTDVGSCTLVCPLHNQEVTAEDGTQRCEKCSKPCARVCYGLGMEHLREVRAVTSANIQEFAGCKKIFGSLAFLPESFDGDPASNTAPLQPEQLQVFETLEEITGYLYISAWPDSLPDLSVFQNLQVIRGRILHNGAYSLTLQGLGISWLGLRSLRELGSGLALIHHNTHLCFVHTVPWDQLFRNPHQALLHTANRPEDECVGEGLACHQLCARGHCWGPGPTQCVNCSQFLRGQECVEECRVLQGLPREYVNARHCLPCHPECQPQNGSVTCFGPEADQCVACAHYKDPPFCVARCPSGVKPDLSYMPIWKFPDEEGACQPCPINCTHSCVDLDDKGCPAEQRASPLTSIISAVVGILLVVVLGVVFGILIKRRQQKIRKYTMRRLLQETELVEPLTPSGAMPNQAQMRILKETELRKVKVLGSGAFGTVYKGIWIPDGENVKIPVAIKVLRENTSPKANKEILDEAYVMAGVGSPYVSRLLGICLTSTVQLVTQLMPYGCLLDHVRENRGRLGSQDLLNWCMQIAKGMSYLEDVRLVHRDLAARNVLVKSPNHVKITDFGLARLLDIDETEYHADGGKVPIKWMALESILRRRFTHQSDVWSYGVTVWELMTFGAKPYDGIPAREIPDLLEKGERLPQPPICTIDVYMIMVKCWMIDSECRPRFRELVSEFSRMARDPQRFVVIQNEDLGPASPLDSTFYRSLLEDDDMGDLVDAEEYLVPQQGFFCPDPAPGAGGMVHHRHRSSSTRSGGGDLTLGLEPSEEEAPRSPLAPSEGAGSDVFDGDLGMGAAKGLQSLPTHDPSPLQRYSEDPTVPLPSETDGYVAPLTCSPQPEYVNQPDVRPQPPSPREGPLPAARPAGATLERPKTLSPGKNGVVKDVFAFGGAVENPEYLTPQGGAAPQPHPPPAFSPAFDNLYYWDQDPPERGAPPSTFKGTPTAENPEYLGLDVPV
# Carbonic anhydrase 1, sequence (P00915 whole entry): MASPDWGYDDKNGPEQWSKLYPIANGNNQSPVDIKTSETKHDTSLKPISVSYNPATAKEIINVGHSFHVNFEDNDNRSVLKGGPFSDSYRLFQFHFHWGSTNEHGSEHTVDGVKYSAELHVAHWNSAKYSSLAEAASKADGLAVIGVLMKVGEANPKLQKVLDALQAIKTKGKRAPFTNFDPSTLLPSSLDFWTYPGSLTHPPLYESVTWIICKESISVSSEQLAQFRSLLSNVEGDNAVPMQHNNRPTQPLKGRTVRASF
# Epidermal growth factor receptor, sequence (P00533 whole entry): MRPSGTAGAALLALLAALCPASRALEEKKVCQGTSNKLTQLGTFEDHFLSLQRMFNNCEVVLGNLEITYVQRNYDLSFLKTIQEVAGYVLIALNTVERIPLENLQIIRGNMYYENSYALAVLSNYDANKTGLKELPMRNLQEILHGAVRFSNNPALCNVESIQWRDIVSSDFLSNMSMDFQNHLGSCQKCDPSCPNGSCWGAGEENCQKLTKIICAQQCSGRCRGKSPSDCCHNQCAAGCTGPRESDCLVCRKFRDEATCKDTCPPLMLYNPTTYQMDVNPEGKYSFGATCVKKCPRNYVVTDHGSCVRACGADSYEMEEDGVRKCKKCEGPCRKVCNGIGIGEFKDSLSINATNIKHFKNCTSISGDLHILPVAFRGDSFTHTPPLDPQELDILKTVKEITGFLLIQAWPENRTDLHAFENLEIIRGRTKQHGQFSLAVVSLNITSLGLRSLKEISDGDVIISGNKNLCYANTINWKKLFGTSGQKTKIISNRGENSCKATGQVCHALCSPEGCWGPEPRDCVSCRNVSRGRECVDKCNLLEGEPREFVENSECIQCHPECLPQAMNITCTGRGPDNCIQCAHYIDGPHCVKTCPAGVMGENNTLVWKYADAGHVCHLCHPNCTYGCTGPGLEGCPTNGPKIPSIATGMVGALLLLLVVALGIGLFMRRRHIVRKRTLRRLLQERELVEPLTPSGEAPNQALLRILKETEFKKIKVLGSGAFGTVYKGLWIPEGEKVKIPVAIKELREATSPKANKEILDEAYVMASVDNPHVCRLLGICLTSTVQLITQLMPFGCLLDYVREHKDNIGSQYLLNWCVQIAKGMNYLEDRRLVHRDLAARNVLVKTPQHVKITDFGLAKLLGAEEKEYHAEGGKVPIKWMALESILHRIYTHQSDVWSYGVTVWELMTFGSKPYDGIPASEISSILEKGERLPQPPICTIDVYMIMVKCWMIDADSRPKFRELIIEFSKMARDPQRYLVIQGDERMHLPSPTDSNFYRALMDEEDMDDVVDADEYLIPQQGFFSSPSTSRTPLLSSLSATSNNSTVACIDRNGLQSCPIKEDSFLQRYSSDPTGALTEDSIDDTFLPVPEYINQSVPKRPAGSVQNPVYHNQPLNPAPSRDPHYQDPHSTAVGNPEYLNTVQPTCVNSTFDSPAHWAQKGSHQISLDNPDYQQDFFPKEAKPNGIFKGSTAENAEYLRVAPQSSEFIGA
compound,measurement,setting,value
COc1ccccc1-c1cc(-c2cc3ccccc3oc2=O)nc(Cc2ccc(F)cc2)n1,IC50,A549,< 10000 nM
same,IC50,MDA-MB-231,< 10000 nM
O=c1oc2ccccc2cc1-c1cc(-c2cccc(Cl)c2)nc(Cc2ccc(F)cc2)n1,IC50,A549,< 10000 nM
same,IC50,MDA-MB-231,< 10000 nM
O=c1oc2ccccc2cc1-c1cc(-c2ccccc2Br)nc(Cc2ccc(F)cc2)n1,IC50,A549,< 10000 nM
same,IC50,MDA-MB-231,< 10000 nM
O=c1oc2ccccc2cc1-c1cc(-c2ccccc2Cl)nc(Cc2ccc(F)cc2)n1,IC50,A549,< 10000 nM
same,IC50,MDA-MB-231,< 10000 nM
Cc1ccccc1-c1cc(-c2cc3ccccc3oc2=O)nc(Cc2ccc(F)cc2)n1,IC50,A549,< 10000 nM
same,IC50,MDA-MB-231,< 10000 nM
Cc1cccc(-c2cc(-c3cc4ccccc4oc3=O)nc(Cc3ccc(F)cc3)n2)c1,IC50,A549,< 10000 nM
same,IC50,MDA-MB-231,< 10000 nM
COc1ccc(-c2cc(-c3cc4ccccc4oc3=O)nc(Cc3ccc(F)cc3)n2)cc1,IC50,A549,< 10000 nM
same,IC50,MDA-MB-231,< 10000 nM
Cc1ccc(-c2cc(-c3cc4ccccc4oc3=O)nc(Cc3ccc(F)cc3)n2)cc1,IC50,A549,< 10000 nM
same,IC50,MDA-MB-231,< 10000 nM
O=c1oc2ccccc2cc1-c1cc(-c2cccc(Br)c2)nc(Cc2ccc(F)cc2)n1,IC50,A549,< 10000 nM
same,IC50,MDA-MB-231,< 10000 nM
O=c1oc2ccccc2cc1-c1cc(-c2ccc(Br)cc2)nc(Cc2ccc(F)cc2)n1,IC50,A549,< 10000 nM
same,IC50,MDA-MB-231,< 10000 nM
O=c1oc2ccccc2cc1-c1cc(-c2ccc(Cl)cc2)nc(Cc2ccc(F)cc2)n1,IC50,A549,< 10000 nM
same,IC50,MDA-MB-231,< 10000 nM
COc1cccc(-c2cc(-c3cc4ccccc4oc3=O)nc(Cc3ccc(F)cc3)n2)c1,IC50,A549,< 10000 nM
same,IC50,MDA-MB-231,< 10000 nM
CC(=O)OC[C@H]1O[C@@H](NC(=S)N/N=C(\C)c2cc3ccccc3oc2=O)[C@H](OC(C)=O)[C@@H](OC(C)=O)[C@H]1OC(C)=O,IC50,HeLa [1],1280 nM
same,IC50,[2],1280 nM
same,IC50,MCF7,1280 nM
same,IC50,SK-MEL-2,1280 nM
same,IC50,HepG2 [3],1280 nM
CC(=O)OC[C@H]1O[C@@H](n2c(-c3ccccc3)cs/c2=N\N=C(/C)c2cc3cc(Cl)ccc3oc2=O)[C@H](OC(C)=O)[C@@H](OC(C)=O)[C@H]1OC(C)=O,IC50,[4],1180 nM
same,IC50,HepG2 [5],1180 nM
same,IC50,HeLa [6],1180 nM
CC(=O)OC[C@H]1O[C@@H](n2c(-c3ccccc3)cs/c2=N\N=C(/C)c2cc3cc(Br)ccc3oc2=O)[C@H](OC(C)=O)[C@@H](OC(C)=O)[C@H]1OC(C)=O,IC50,[4],1180 nM
same,IC50,HepG2 [5],1180 nM
same,IC50,HeLa [6],1180 nM
C[C@@H]1CN(S(=O)(=O)c2cccc(C(=O)Nc3ccc4c(c3)C=CS(=O)(=O)O4)c2)C[C@H](C)O1,Ki,Carbonic anhydrase 1,99.4 nM
same,Ki,Carbonic anhydrase 2,99.4 nM
CC(=O)OC[C@H]1O[C@@H](NC(=S)N/N=C(\C)c2c(O)c3ccccc3oc2=O)[C@H](OC(C)=O)[C@@H](OC(C)=O)[C@H]1OC(C)=O,IC50,HeLa [1],1280 nM
same,IC50,[2],1280 nM
same,IC50,MCF7,1280 nM
same,IC50,SK-MEL-2,1280 nM
same,IC50,HepG2 [3],1280 nM
O=C(Nc1ccc2c(c1)C=CS(=O)(=O)O2)c1cccc(S(=O)(=O)N2CCOCC2)c1,Ki,Carbonic anhydrase 1,99.4 nM
same,Ki,Carbonic anhydrase 2,99.4 nM
O=C(Nc1ccc2c(c1)C=CS(=O)(=O)O2)c1cccc(S(=O)(=O)N2CCCC2)c1,Ki,Carbonic anhydrase 1,99.4 nM
same,Ki,Carbonic anhydrase 2,99.4 nM
Cc1ccc(C(=O)Nc2ccc3c(c2)C=CS(=O)(=O)O3)cc1S(=O)(=O)N1CCCCC1,Ki,Carbonic anhydrase 1,99.4 nM
same,Ki,Carbonic anhydrase 2,99.4 nM
COc1cccc2cc(/C(C)=N/NC(=S)N[C@@H]3O[C@H](COC(C)=O)[C@H](OC(C)=O)[C@H](OC(C)=O)[C@H]3OC(C)=O)c(=O)oc12,IC50,HeLa [1],1280 nM
same,IC50,[2],1280 nM
same,IC50,MCF7,1280 nM
same,IC50,SK-MEL-2,1280 nM
same,IC50,HepG2 [3],1280 nM
C[C@@H]1CN(S(=O)(=O)c2cc(C(=O)Nc3ccc4c(c3)C=CS(=O)(=O)O4)ccc2F)C[C@H](C)O1,Ki,Carbonic anhydrase 1,99.4 nM
same,Ki,Carbonic anhydrase 2,99.4 nM
O=C(Nc1ccc2c(c1)C=CS(=O)(=O)O2)c1ccc(F)c(S(=O)(=O)N2CCOCC2)c1,Ki,Carbonic anhydrase 1,99.4 nM
same,Ki,Carbonic anhydrase 2,99.4 nM
CC(=O)OC[C@H]1O[C@@H](NC(=S)N/N=C(\C)c2cc3ccc(C)cc3oc2=O)[C@H](OC(C)=O)[C@@H](OC(C)=O)[C@H]1OC(C)=O,IC50,HeLa [1],1280 nM
same,IC50,[2],1280 nM
same,IC50,MCF7,1280 nM
same,IC50,SK-MEL-2,1280 nM
same,IC50,HepG2 [3],1280 nM
CC(=O)OC[C@H]1O[C@@H](NC(=S)N/N=C(\C)c2cc3cc(Br)ccc3oc2=O)[C@H](OC(C)=O)[C@@H](OC(C)=O)[C@H]1OC(C)=O,IC50,HeLa [1],1280 nM
same,IC50,[2],1280 nM
same,IC50,MCF7,1280 nM
same,IC50,SK-MEL-2,1280 nM
same,IC50,HepG2 [3],1280 nM
C[C@@H]1CN(S(=O)(=O)c2cc(C(=O)Nc3ccc4c(c3)C=CS(=O)(=O)O4)ccc2Cl)C[C@H](C)S1,Ki,Carbonic anhydrase 1,99.4 nM
same,Ki,Carbonic anhydrase 2,99.4 nM
CC(=O)OC[C@H]1O[C@@H](NC(=S)N/N=C(\C)c2cc3cc(C)ccc3oc2=O)[C@H](OC(C)=O)[C@@H](OC(C)=O)[C@H]1OC(C)=O,IC50,HeLa [1],1280 nM
same,IC50,[2],1280 nM
same,IC50,MCF7,1280 nM
same,IC50,SK-MEL-2,1280 nM
same,IC50,HepG2 [3],1280 nM
CC(=O)OC[C@H]1O[C@@H](n2c(-c3ccccc3)cs/c2=N\N=C\c2cc(=O)oc3cc(C)ccc23)[C@H](OC(C)=O)[C@@H](OC(C)=O)[C@@H]1OC(C)=O,IC50,[4],1180 nM
same,IC50,HepG2 [5],1180 nM
same,IC50,HeLa [6],1180 nM
O=C(Nc1ccc2c(c1)C=CS(=O)(=O)O2)c1ccc(Cl)c(S(=O)(=O)N2CCCCC2)c1,Ki,Carbonic anhydrase 1,99.4 nM
same,Ki,Carbonic anhydrase 2,99.4 nM
COc1ccc(C(=O)Nc2ccc3c(c2)C=CS(=O)(=O)O3)cc1S(=O)(=O)N1CCCC1,Ki,Carbonic anhydrase 1,99.4 nM
same,Ki,Carbonic anhydrase 2,99.4 nM
O=C(Nc1ccc2c(c1)C=CS(=O)(=O)O2)c1ccc(Cl)c(S(=O)(=O)N2CCOCC2)c1,Ki,Carbonic anhydrase 1,99.4 nM
same,Ki,Carbonic anhydrase 2,99.4 nM
COc1ccc(C(=O)Nc2ccc3c(c2)C=CS(=O)(=O)O3)cc1S(=O)(=O)N1C[C@@H](C)O[C@@H](C)C1,Ki,Carbonic anhydrase 1,99.4 nM
same,Ki,Carbonic anhydrase 2,99.4 nM
COc1ccc(C(=O)Nc2ccc3c(c2)C=CS(=O)(=O)O3)cc1S(=O)(=O)N1CCOCC1,Ki,Carbonic anhydrase 1,99.4 nM
same,Ki,Carbonic anhydrase 2,99.4 nM
CC(=O)OC[C@H]1O[C@@H](NC(=S)N/N=C(\C)c2c(C)c3ccc(O)cc3oc2=O)[C@H](OC(C)=O)[C@@H](OC(C)=O)[C@H]1OC(C)=O,IC50,HeLa [1],1280 nM
same,IC50,[2],1280 nM
same,IC50,MCF7,1280 nM
same,IC50,SK-MEL-2,1280 nM
same,IC50,HepG2 [3],1280 nM
O=C(Nc1ccc2c(c1)C=CS(=O)(=O)O2)c1ccc(F)c(S(=O)(=O)N2CCCC2)c1,Ki,Carbonic anhydrase 1,99.4 nM
same,Ki,Carbonic anhydrase 2,99.4 nM
CC(=O)OC[C@H]1O[C@@H](NC(=S)N/N=C(\C)c2cc3cc(Cl)ccc3oc2=O)[C@H](OC(C)=O)[C@@H](OC(C)=O)[C@H]1OC(C)=O,IC50,HeLa [1],1280 nM
same,IC50,[2],1280 nM
same,IC50,MCF7,1280 nM
same,IC50,SK-MEL-2,1280 nM
same,IC50,HepG2 [3],1280 nM
CC(=O)OC[C@H]1O[C@@H](NC(=S)N/N=C(\C)c2c(C)c3ccccc3oc2=O)[C@H](OC(C)=O)[C@@H](OC(C)=O)[C@H]1OC(C)=O,IC50,HeLa [1],1280 nM
same,IC50,[2],1280 nM
same,IC50,MCF7,1280 nM
same,IC50,SK-MEL-2,1280 nM
same,IC50,HepG2 [3],1280 nM
CC(=O)OC[C@H]1O[C@@H](n2c(-c3ccccc3)cs/c2=N\N=C(/C)c2cc3ccccc3oc2=O)[C@H](OC(C)=O)[C@@H](OC(C)=O)[C@@H]1OC(C)=O,IC50,[4],1180 nM
same,IC50,HepG2 [5],1180 nM
same,IC50,HeLa [6],1180 nM
CCCCCOc1ccc2oc(=O)cc(/C=N/N=c3\scc(-c4ccccc4)n3[C@@H]3O[C@H](COC(C)=O)[C@@H](OC(C)=O)[C@H](OC(C)=O)[C@H]3OC(C)=O)c2c1,IC50,[4],1180 nM
same,IC50,HepG2 [5],1180 nM
same,IC50,HeLa [6],1180 nM
same,IC50,[7],150 nM
same,IC50,[8],150 nM
Cc1ccc(C(=O)Nc2ccc3c(c2)C=CS(=O)(=O)O3)cc1S(=O)(=O)N1CCCC1,Ki,Carbonic anhydrase 1,99.4 nM
same,Ki,Carbonic anhydrase 2,99.4 nM
CC(=O)OC[C@H]1O[C@@H](NC(=S)N/N=C(\C)c2c(O)c3cccc(C)c3oc2=O)[C@H](OC(C)=O)[C@@H](OC(C)=O)[C@H]1OC(C)=O,IC50,HeLa [1],1280 nM
same,IC50,[2],1280 nM
same,IC50,MCF7,1280 nM
same,IC50,SK-MEL-2,1280 nM
same,IC50,HepG2 [3],1280 nM
COc1ccc(C(=O)Nc2ccc3c(c2)C=CS(=O)(=O)O3)cc1S(=O)(=O)N1CCSCC1,Ki,Carbonic anhydrase 1,99.4 nM
same,Ki,Carbonic anhydrase 2,99.4 nM
